SMILES strings stand for the structures.

Assay [1] has as its target T1, Dihydrofolate reductase (Rattus norvegicus, UniProt Q920D2).
T1 sequence (Q920D2 whole entry): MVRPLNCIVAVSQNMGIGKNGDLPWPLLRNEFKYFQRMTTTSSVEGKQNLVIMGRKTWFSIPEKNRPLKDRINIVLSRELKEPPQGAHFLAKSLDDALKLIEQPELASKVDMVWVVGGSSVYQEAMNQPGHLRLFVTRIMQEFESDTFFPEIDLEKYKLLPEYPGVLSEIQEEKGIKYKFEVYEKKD
Description: Concentration inhibiting rat liver dihydrofolate reductase.

Assay [2] has as its target T2, Dihydrofolate reductase (Pneumocystis carinii, UniProt P16184).
T2 sequence (P16184 whole entry): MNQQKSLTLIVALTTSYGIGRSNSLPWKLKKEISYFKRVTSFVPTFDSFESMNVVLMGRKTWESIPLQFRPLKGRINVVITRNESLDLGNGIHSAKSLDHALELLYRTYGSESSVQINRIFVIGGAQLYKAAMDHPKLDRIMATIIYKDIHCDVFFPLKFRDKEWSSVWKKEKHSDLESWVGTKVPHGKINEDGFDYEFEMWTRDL
Description: Concentration inhibiting Pneumocystis carinii dihydrofolate reductase

Assay [3] deals with T3, Bifunctional dihydrofolate reductase-thymidylate synthase (Toxoplasma gondii, UniProt Q07422).
T3 sequence (Q07422 whole entry): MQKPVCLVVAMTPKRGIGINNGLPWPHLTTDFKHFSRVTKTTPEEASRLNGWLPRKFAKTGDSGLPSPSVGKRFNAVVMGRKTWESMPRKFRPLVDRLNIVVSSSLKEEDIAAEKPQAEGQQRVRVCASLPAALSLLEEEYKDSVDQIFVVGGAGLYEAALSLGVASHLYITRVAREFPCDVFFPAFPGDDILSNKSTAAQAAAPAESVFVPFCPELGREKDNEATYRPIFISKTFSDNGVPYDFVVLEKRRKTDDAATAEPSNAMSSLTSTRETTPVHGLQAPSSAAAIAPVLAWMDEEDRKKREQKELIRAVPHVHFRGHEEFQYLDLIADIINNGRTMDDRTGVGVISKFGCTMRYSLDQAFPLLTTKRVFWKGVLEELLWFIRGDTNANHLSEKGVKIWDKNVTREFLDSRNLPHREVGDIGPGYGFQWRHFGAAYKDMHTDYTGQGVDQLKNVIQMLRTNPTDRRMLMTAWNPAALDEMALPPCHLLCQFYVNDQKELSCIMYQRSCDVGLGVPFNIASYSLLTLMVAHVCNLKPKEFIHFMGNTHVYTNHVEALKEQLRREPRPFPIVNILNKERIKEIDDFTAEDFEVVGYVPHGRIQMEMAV
Put plainly: Concentration inhibiting Toxoplasma gondii dihydrofolate reductase.

For the molecule `CN(Cc1ccc2nc(N)nc(N)c2n1)c1ccc(Cl)c(Cl)c1`, the half-inhibitory concentration (IC50) at Dihydrofolate reductase [1] came out at 0.032 µM; against Dihydrofolate reductase [2], 0.022 µM; in assay [3] it was 0.098 µM.
As for `COc1cc(N(C)Cc2ccc3nc(N)nc(N)c3n2)cc(OC)c1OC`, the IC50 came out at 0.026 µM against Dihydrofolate reductase [1], 0.13 µM at Dihydrofolate reductase [2] and 0.0047 µM in assay [3].
The like results for `CN(Cc1ccc2nc(N)nc(N)c2n1)c1ccc(Cl)cc1` were, in that order, 0.022 µM, 0.062 µM and 0.015 µM.
The like results for `CN(Cc1ccc2nc(N)nc(N)c2n1)c1cccc(Cl)c1` were, in that order, 0.067 µM, 2.1 µM and 0.02 µM.
Take `COc1cc(NCc2ccc3nc(N)nc(N)c3n2)cc(OC)c1OC`: the IC50 on Dihydrofolate reductase [2] came out at 2.6 µM; in assay [3], 0.082 µM.
On to `COc1ccc(OC)c(NCc2ccc3nc(N)nc(N)c3n2)c1`, for which the half-inhibitory concentration (IC50) is 0.43 µM at Dihydrofolate reductase [1], 1.4 µM at Dihydrofolate reductase [2] and 0.1 µM in assay [3].

Source of the values: ChEMBL document CHEMBL1128717, “2,4-Diaminopyrido[3,2-d]pyrimidine inhibitors of dihydrofolate reductase from Pneumocystis carinii and Toxoplasma gondii” (J Med Chem, 1995).
